Assays:
Format in all cases: cell-based
[1] = system: A3 cell lines; assay: MTT assay, A3 cell lines (lung cancer stem cell)
Description: Please to FIG. 4B, various cell viabilities of the A3 cell lines can be obtained through the MTT assay and illustrated in FIG. 4B while the compounds No. 1˜30 are used to treat A3 cell lines, wherein A3 cell lines are lung cancer stem cell.

[2] = system: A control cell lines; assay: MTT assay, A control cell lines (lung cancer cell); details: for inhibition effect on A control cell line (in words): summary of MTT cell viabilities
Description: Please refer to Table 1 and FIGS. 4A-4C. According to a MTT assay (Table 1), various cell viabilities of the A control cell lines can be obtained and illustrated in FIG. 4A while the compounds No. 2˜30 are used to treat A control cell lines, wherein A control cell lines are lung cancer cell.

[3] = MTT assay, HEL299 fibroblast; details: human
Description: (§1) Please refer to FIG. 4C, various cell viabilities of the HEL299 cell lines can be obtained through the MTT assay while the compounds No. 1˜30 are used to treat HEL299 cell lines, wherein HEL299 cell lines are fibroblast.

[4] = system: HEL299 fibroblast; assay: MTT assay, HEL299 fibroblast
Description: as §1

| SMILES | cell viabilities of A3 cell lines (MTT assay) [1] [%] | inhibition effect on A3 cell line (in words) ([1]; summary of MTT cell viabilities) | cell viabilities of A control cell lines (MTT assay) [2] [%] | inhibition effect on A control cell line (in words) [2] | viability [3] [%] | cytotoxicity effect on the normal fibroblast (in words) [4] |
| --- | --- | --- | --- | --- | --- | --- |
| O=c1c2ccccc2sc2c(Cl)c(SCc3ccc(Br)cc3)ccc12 [No. 25, 3-(4-Bromobenzylthio)-4-chloro-9H-thioxanthen-9-one] | 61.5 | inhibition effect | 40.8 | inhibition effect | 79.3 | without the cytotoxicity effect |
| Cc1cc(C)c(CSc2ccc3c(=O)c4ccccc4sc3c2Cl)c(C)c1 [No. 28, 4-Chloro-3-(2,4,6-trimethylbenzylthio)-9H-thioxanthen-9-one] | 98.3 ± 2.25 |  | 52.9 | inhibition effect | 91.2 | without the cytotoxicity effect |

— US8410161B2, “Thioxanthone ring system derivatives” (National Defense Medical Center, priority 2010, dated 2013)
